Reference: patent US9708314B2, “Heterocyclic amide compound” (NISSAN CHEMICAL INDUSTRIES, LTD., priority 2013, dated 2017)

Legend:
Assay type in all cases: in vivo
[1] = system: transplanted Oryza sativa; assay: Test Example 1: effect on crop, application before weed generation in submerged conditions; conditions: Application herbicide amount 320 g/ha; Seventeenth Table
Outline: (§1)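 Submerged pot test: alluvial soil, 4 cm water, seeds sown mixed, 2.5-leaf rice transplanted; emulsion in water applied to surface day of sowing, dose g/ha; greenhouse 25–30° C.; 3 wk; 0–5 rating.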

Scirpus juncoides = assay: Test Example 1: herbicidal activity, application before weed generation in submerged conditions; conditions: Application herbicide amount 320 g/ha; Seventeenth Table
Outline: as §1

[2] = system: Echinochloa oryzacola Vasing.; assay: as above; conditions: Application herbicide amount 320 g/ha; Seventeenth Table
Outline: as §1

Monochoria vaginalis = assay: as above; conditions: Application herbicide amount 320 g/ha; Seventeenth Table
Outline: as §1

Glycine max = assay: Test Example 4: effect on crop by application to foliage (diluvial soil, plastic box); conditions: foliage application, 320 g/ha
Outline: (§2)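 Read-out is a 0–5 visual grade of herbicidal ratio (5: ≥90%, almost withered; 0: ≤5%) taken three weeks after treatment. Compound was applied as a diluted emulsion to stem and leaf parts of 14-day greenhouse-grown plants (25° C. to 30° C.) at rates expressed as g/ha.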

[3] = system: Beta vulgaris ssp. vulgaris; assay: as above; conditions: foliage application, 320 g/ha
Outline: as §2

[4] = system: directly sowed Oryza sativa; assay: as above; conditions: foliage application, 320 g/ha
Outline: as §2

Triticum aestivum = assay: as above; conditions: foliage application, 320 g/ha
Outline: as §2

Zea mays = assay: as above; conditions: foliage application, 320 g/ha
Outline: as §2

Brassica campestris L. = assay: as above; conditions: foliage application, 320 g/ha
Outline: as §2

Row | SMILES | a: transplanted Oryza sativa (effect on crop grade) [1] | B: Scirpus juncoides (herbicidal effect grade) (Scirpus juncoides) | A: Echinochloa oryzicola Vasing. (herbicidal effect grade) [2] | C: Monochoria vaginalis (herbicidal effect grade) (Monochoria vaginalis) | c (Glycine max) effect on crop grade (Glycine max) | f (Beta vulgaris ssp. vulgaris) effect on crop grade [3] | d (directly sowed Oryza sativa) effect on crop grade [4] | e (Triticum aestivum) effect on crop grade (Triticum aestivum) | b (Zea mays) effect on crop grade (Zea mays) | g (Brassica campestris L.) effect on crop grade (Brassica campestris L.)
1 | CC(c1nnc2c(C(=O)Nc3nnnn3C)ccc(C(F)(F)F)n12)S(C)(=O)=O (stereo not drawn) [2-054] | 5 (Herbicidal ratio of 90% or more (almost completely withered)) | 5 (Herbicidal ratio of 90% or more (almost completely withered)) | 5 (Herbicidal ratio of 90% or more (almost completely withered)) | 5 (Herbicidal ratio of 90% or more (almost completely withered)) | 5 (Herbicidal ratio of 90% or more (almost completely withered)) | 5 (Herbicidal ratio of 90% or more (almost completely withered)) | 5 (Herbicidal ratio of 90% or more (almost completely withered)) | 5 (Herbicidal ratio of 90% or more (almost completely withered)) | 5 (Herbicidal ratio of 90% or more (almost completely withered)) | 5 (Herbicidal ratio of 90% or more (almost completely withered))
2 | Cn1nnnc1NC(=O)c1ccc(C(F)(F)F)n2c(Nc3ccccc3)nnc12 [2-056] | 1 (Herbicidal ratio of 5% or more and less than 20%) | 4 (Herbicidal ratio of 70% or more and less than 90%) | 4 (Herbicidal ratio of 70% or more and less than 90%) | 3 (Herbicidal ratio of 40% or more and less than 70%) | 1 (Herbicidal ratio of 5% or more and less than 20%) | 5 (Herbicidal ratio of 90% or more (almost completely withered)) | 3 (Herbicidal ratio of 40% or more and less than 70%) | 1 (Herbicidal ratio of 5% or more and less than 20%) | 0 (Herbicidal ratio of 5% or less (almost no effect)) | 3 (Herbicidal ratio of 40% or more and less than 70%)
3 | CSCCc1nnc2c(C(=O)Nc3nnnn3C)ccc(C(F)(F)F)n12 [2-057] | 4 (Herbicidal ratio of 70% or more and less than 90%) | 4 (Herbicidal ratio of 70% or more and less than 90%) | 4 (Herbicidal ratio of 70% or more and less than 90%) | 4 (Herbicidal ratio of 70% or more and less than 90%) | 2 (Herbicidal ratio of 20% or more and less than 40%) | 5 (Herbicidal ratio of 90% or more (almost completely withered)) | 5 (Herbicidal ratio of 90% or more (almost completely withered)) | 4 (Herbicidal ratio of 70% or more and less than 90%) | 4 (Herbicidal ratio of 70% or more and less than 90%) | 5 (Herbicidal ratio of 90% or more (almost completely withered))
4 | Cn1nnnc1NC(=O)c1ccc(C(F)(F)F)n2c(CC[S+](C)[O-])nnc12 (stereo not drawn) [2-058] | 5 (Herbicidal ratio of 90% or more (almost completely withered)) | 4 (Herbicidal ratio of 70% or more and less than 90%) | 4 (Herbicidal ratio of 70% or more and less than 90%) | 5 (Herbicidal ratio of 90% or more (almost completely withered)) | 3 (Herbicidal ratio of 40% or more and less than 70%) | 5 (Herbicidal ratio of 90% or more (almost completely withered)) | 5 (Herbicidal ratio of 90% or more (almost completely withered)) | 5 (Herbicidal ratio of 90% or more (almost completely withered)) | 5 (Herbicidal ratio of 90% or more (almost completely withered)) | 5 (Herbicidal ratio of 90% or more (almost completely withered))
5 | Cn1nnnc1NC(=O)c1ccc(C(F)(F)F)n2c(CCS(C)(=O)=O)nnc12 [2-059] | 5 (Herbicidal ratio of 90% or more (almost completely withered)) | 4 (Herbicidal ratio of 70% or more and less than 90%) | 4 (Herbicidal ratio of 70% or more and less than 90%) | 4 (Herbicidal ratio of 70% or more and less than 90%) | 3 (Herbicidal ratio of 40% or more and less than 70%) | 5 (Herbicidal ratio of 90% or more (almost completely withered)) | 5 (Herbicidal ratio of 90% or more (almost completely withered)) | 4 (Herbicidal ratio of 70% or more and less than 90%) | 5 (Herbicidal ratio of 90% or more (almost completely withered)) | 5 (Herbicidal ratio of 90% or more (almost completely withered))
6 | Cn1nnnc1NC(=O)c1ccc(C(F)(F)F)n2c(-c3ccc(Cl)nc3)nnc12 [2-060] | 5 (Herbicidal ratio of 90% or more (almost completely withered)) | 5 (Herbicidal ratio of 90% or more (almost completely withered)) | 5 (Herbicidal ratio of 90% or more (almost completely withered)) | 5 (Herbicidal ratio of 90% or more (almost completely withered)) | 2 (Herbicidal ratio of 20% or more and less than 40%) | 5 (Herbicidal ratio of 90% or more (almost completely withered)) | 4 (Herbicidal ratio of 70% or more and less than 90%) | 4 (Herbicidal ratio of 70% or more and less than 90%) | 5 (Herbicidal ratio of 90% or more (almost completely withered)) | 5 (Herbicidal ratio of 90% or more (almost completely withered))
7 | Cn1nnnc1NC(=O)c1ccc(C(F)(F)F)n2c(-c3cccs3)nnc12 [2-061] | 4 (Herbicidal ratio of 70% or more and less than 90%) | 5 (Herbicidal ratio of 90% or more (almost completely withered)) | 5 (Herbicidal ratio of 90% or more (almost completely withered)) | 5 (Herbicidal ratio of 90% or more (almost completely withered)) | 3 (Herbicidal ratio of 40% or more and less than 70%) | 5 (Herbicidal ratio of 90% or more (almost completely withered)) | 4 (Herbicidal ratio of 70% or more and less than 90%) | 3 (Herbicidal ratio of 40% or more and less than 70%) | 5 (Herbicidal ratio of 90% or more (almost completely withered)) | 4 (Herbicidal ratio of 70% or more and less than 90%)
8 | Cc1cc(-c2nnc3c(C(=O)Nc4nnnn4C)ccc(C(F)(F)F)n23)n(C)n1 [2-062] | 5 (Herbicidal ratio of 90% or more (almost completely withered)) | 5 (Herbicidal ratio of 90% or more (almost completely withered)) | 5 (Herbicidal ratio of 90% or more (almost completely withered)) | 5 (Herbicidal ratio of 90% or more (almost completely withered)) | 5 (Herbicidal ratio of 90% or more (almost completely withered)) | 5 (Herbicidal ratio of 90% or more (almost completely withered)) | 5 (Herbicidal ratio of 90% or more (almost completely withered)) | 4 (Herbicidal ratio of 70% or more and less than 90%) | 5 (Herbicidal ratio of 90% or more (almost completely withered)) | 5 (Herbicidal ratio of 90% or more (almost completely withered))
9 | COc1ccc(Cc2nnc3c(C(=O)Nc4nnnn4C)ccc(C(F)(F)F)n23)cc1 [2-065] | 2 (Herbicidal ratio of 20% or more and less than 40%) | 4 (Herbicidal ratio of 70% or more and less than 90%) | 5 (Herbicidal ratio of 90% or more (almost completely withered)) | 4 (Herbicidal ratio of 70% or more and less than 90%) | 4 (Herbicidal ratio of 70% or more and less than 90%) | 5 (Herbicidal ratio of 90% or more (almost completely withered)) | 4 (Herbicidal ratio of 70% or more and less than 90%) | 3 (Herbicidal ratio of 40% or more and less than 70%) | 3 (Herbicidal ratio of 40% or more and less than 70%) | 4 (Herbicidal ratio of 70% or more and less than 90%)
